Test results from article PMC6715681, “A high-throughput screen to identify novel synthetic lethal compounds for the treatment of E-cadherin-deficient cells” (Scientific Reports, 2019).
Marks after values point to notes of the source that are not given here.

Legend:
MCF10A CDH1^−/− cells [1] = test: 11-point dose-response screen, high-content imaging (HCI) of Hoechst 33342 nuclei; type: cell-based, human; conditions: 11-point screen; for EC50: Homo sapiens, MCF-10A, HCI
Description: (§1) The 11-point dose-response screen evaluated a concentration range from 0.02 µM to 20 µM for both isogenic cell lines in duplicate biological replicates (Fig. 4). One limitation to metabolism-based cellular assays is that a change in read out (fluorescence, luminescence or absorbance) may not necessarily be caused by cell death and could instead result from a cessation of proliferation due to senescence or inhibited mitochondrial respiration. For this reason, a direct measurement of cell counts using cellular imaging of nuclei stained with Hoechst 33342 was also included at the 11-point screening stage. For the CTB 11-point screen all plates had acceptable Z’ values above 0.4, with the second biological replicate having 70% above 0.6 (Fig. 4A). The Z’ values for the high-content imaging (HCI) 11-point screen plates were above 0.4 for MCF10A WT, except one plate from biological replicate two with 0.396 (Fig. 4B). However, for MCF10A CDH1^−/− HCI data, only four plates were above a Z’ of 0.4 and the mean Z’ was 0.32 compared to a mean of 0.51 for MCF10A WT. A further quality metric known as the strictly standardized mean difference (SSMD)[40] is a less conservative approach for QC and a cut-off of >3 is generally used. The mean SSMD value was 7.04 for MCF10A WT and 5.27 for MCF10A CDH1^−/− plates and indicates the MCF10A CDH1^−/− HCI data was acceptable[41]. There was a good correlation between the top hits from the HCI and CTB 11-point screening with an overlap of 31 / 40 for the top 40 compounds selected from the eventual hit selection strategies.
(§2) A direct measurement of cell counts using cellular imaging of nuclei was also included at the 11-point screening stage. Plates were fixed, washed and stained using an ELx405 Select deep well washer (BioTek). Media was first aspirated leaving 10 μL/well, then 4% w/v PFA was added and plates left for 15 minutes at RT. Plates were then washed twice with PBS-T, before aspirating all permeabilization buffer and adding Hoechst 33342 (1 μg/mL final) in PBS. Plates were then stored in the dark at 4 °C, until being imaged on a BD Pathway 855. Two 10x images per well were taken and cell counts enumerated using CellProfiler[48].

MCF10A WT cells [2] = test: as above; type: cell-based; conditions: Homo sapiens, MCF-10A, 11-point screen
Description: as §1, §2

MCF10A CDH1^−/− cells [3] = test: xCELLigence real-time impedance assay (cell proliferation index); type: cell-based, human; conditions: for SL differential between the two cell lines (in words): xCELLigence real-time assay, SLEC-8 at 10 μM, SLEC-11 at 20 μM
Description: (§3) The xCELLigence real-time system quantifies electrical impedance as a measurement of cell viability which is expressed as the cell proliferation index. […] This was due to drug effects and briefly removing plates from the incubator for the addition of compounds and controls. Despite a slower adhesion time for MCF10A CDH1^−/−, consistent with our previous finding[3] the DMSO control treated cells had similar slopes of 0.17 and 0.15 for MCF10A WT and MCF10A CDH1^−/−, respectively.
(§4) Figure 10 Real-time xCELLigence data for lead compounds 8 and 11. (A) Timeline for the real-time cellular assay. Plates were seeded 4,000 cells/well as described in the Methods. (B,C) Data shown is a representative experiment of two biological replicates, performed in 96-well xCELLigence E-plates. Error bars are SD. Measurements were taken every 15 minutes. The cell proliferation index was calculated using the RTCA software. (B) Cells were treated with SLEC-8. (C) Cells were treated with SLEC-11.
(§5) Cells were seeded into each well of Corning’s black walled, clear bottom 96-well plates with a total volume of 100 μL per well. Edge wells were excluded. Both isogenic cell lines were seeded into the same plate to mitigate plate-to-plate variation. Plates for real-time analysis were transferred to the xCELLigence platform (ACEA Biosciences, USA) or the IncuCyte FLR imaging system (Essen BioScience, USA) as previously described.

MCF10A WT cells [4] = test: as above; type: cell-based, human
Description: as §3, §4, §5

MCF10A WT cells [5] = test: Medium-throughput validation in 96-well plates, Hoechst-33342 nuclei counts (CellProfiler); type: cell-based; conditions: Homo sapiens, MCF-10A, 96-well validation, at least five concentration points
Description: as §5
(§6) Seventy-two hours post seeding (or 48 hours post compound addition), plates were assayed for cell viability using a one-step cocktail of PFA (0.25% v/v), saponin (0.075% w/v) and Hoechst 33342 (1 μg/ml final) as described previously. CellProfiler was used to enumerate cell counts as previously described.

MCF10A CDH1^−/− cells [6] = test: as above; type: cell-based, human; conditions: for EC50 ratio (MCF10A WT/MCF10A CDH1^−/−) / EC50: 96-well validation; for EC50: Hoechst nuclei counts, at least five concentration points; for Differential at 5 µM (%): 48 h post compound addition
Description: as §5, §6

[7] = normalized cell counts MCF10A WT – MCF10A CDH1^−/−, 96-well

SMILES	EC50 ratio between MCF10A WT and MCF10A CDH1^−/− cells (MCF10A CDH1^−/− cells [1]; value corresponds to the HCI EC50s of Fig. 5) [fold change]	EC50 (MCF10A CDH1^−/− cells [1]) [µM]	EC50 (MCF10A WT cells [2]) [µM]	SL differential between the two cell lines (in words) (MCF10A CDH1^−/− cells [3])	Decrease in cell proliferation index compared to DMSO (MCF10A CDH1^−/− cells [3]; xCELLigence, 10 μM, 60 hours post seeding) [fold]	Recovery of MCF10A WT cells (in words) (MCF10A WT cells [4]; 10 μM, by 60 hours post seeding)	EC50 (MCF10A WT cells [5]) [µM]	EC50 ratio (MCF10A WT/MCF10A CDH1^−/−) (MCF10A CDH1^−/− cells [6])	EC50 (MCF10A CDH1^−/− cells [6]) [µM]	EC50 (MCF10A CDH1^−/− cells [6]; Homo sapiens, MCF-10A) [µM]	SL differential at 2.5 μM (MCF10A CDH1^−/− cells [6]; normalized cell counts MCF10A WT – MCF10A CDH1^−/−, 96-well, 2.5 μM) [%]	Differential at 5 µM (%) (MCF10A CDH1^−/− cells [6]; [7])	Differential at 5 µM (%) (MCF10A CDH1^−/− cells [6]; normalized cell counts MCF10A WT – MCF10A CDH1^−/−, 96-well, listed as 8)	Difference in cell proliferation index between compound and DMSO (maximum) (MCF10A CDH1^−/− cells [3]; xCELLigence, 20 μM, 62 hours post seeding) [fold]	Difference in cell proliferation index to DMSO in MCF10A WT cells (in words) (MCF10A WT cells [4]; 20 μM, 62 hours post seeding)	Differential at 5 µM (%) (MCF10A CDH1^−/− cells [6]; normalized cell counts MCF10A WT – MCF10A CDH1^−/−, 96-well, listed as 11)
CC(O)CNCc1ccc(OCc2ccc(Cl)cc2Cl)cc1 (stereo not drawn) [SLEC-8]	5.03	2.02	10.2	significant SL differential	2.7	able to fully recover	12.4	1.36	9.07	9.1	22.0	22.8	22.79* %	–	–	–
COc1ccc2nc(C)cc(NCc3ccc(F)cc3)c2c1 [SLEC-11, N-(4-Fluorobenzyl)-6-methoxy-2-methylquinolin-4-amine]	–	7.34	14.6	significant SL differential	–	–	10.8	1.53	7.02	7	–	20.7	–	7.9	no difference	20.74* %
